Results from patent US20250041247A1, “SMALL MOLECULE INHIBITORS OF REPEAT ASSOCIATED NON-AUG (RAN) TRANSLATION AND COMBINATION THERAPIES” (University of Florida Research Foundation, Incorporated, priority 2021, published 2025).

How the values were obtained:
[1] = tested on: C9orf72 ALS/FTD mice (C9); assay: DigiGait gait analysis; type: in vivo; details: 18 week female mice
Experimental: Gait analysis. Digital video images of the underside of the mouse were collected with a high-speed video camera from below the transparent belt of a motorized treadmill (DigiGait™ Imaging system, Mouse Specific). Female C9orf72 ALS/FTD mice (C9) mice and their littermates (non-transgenic mice (NT)) were tested at 18 weeks of age with treatment beginning at 8 weeks of age. Each mouse was allowed to explore the treadmill compartment with the motor speed set to 14 cm/s for 1 min, then the motor speed was increased to 24c m/s for video recording. Only video recordings in which the mouse walked straight ahead with a constant relative position with respect to the camera were used for analysis. Data from each hind paw was analyzed with DigiGait automated gait analysis software (Mouse Specifics). For additional details, see Neuron, 2016, 90(3), 521-34. doi: 10.1016/j.neuron.2016.04.005. Mock treatment is vehicle only, meaning chow without quercetin.

poly-Ala RAN proteins = assay: Protein blots for poly-Ala RAN proteins in HEK293T cells transfected with CAG expansion constructs; type: cell-based; details: treatment with different concentrations of quercetin, or metformin
Description: cDNA constructs. […] Antibodies. […] Western blotting. […] Quantification and statistical analysis.

[2] = Quercetin-NT vs Quercetin C9, significance

O=c1c(O)c(-c2ccc(O)c(O)c2)oc2cc(O)cc(O)c12 [quercetin]
13 gait abnormalities found between C9orf72 ALS/FTD mice (C9) vs. non-transgenic (NT) mice ([1]; DigiGait, treatment beginning at 8 weeks, quercetin in chow): corrected
Absolute PawAngle (deg) [1, 2]: ns
Ataxia Coefficient (real#) [1, 2]: ns
Axis Distance (cm/s) [1, 2]: ns
Brake (s) [1, 2]: ns
BrakeStance (%) [1, 2]: ns
BrakeStride (%) [1, 2]: ns
Gait Symmetry (real#) [1, 2]: ns
Hind Limb Shared Stance Time (s) [1, 2]: ns
MAX dA/dT (cm^2/s) [1, 2]: ns
MIN dA/dT (cm^2/s) [1, 2]: ns
Midline Distance (cm) [1, 2]: ns
Overlap Distance (cm) [1, 2]: ns
Paw Angle Variability (deg) [1, 2]: ns
Paw Area Variability at Peak Stance in sq. cm (cm^2) [1, 2]: ns
Paw Area at Peak Stance in sq. cm (cm^2) [1, 2]: ns
Paw Drag (real#) [1, 2]: ns
PawAngle (deg) [1, 2]: ns
PawPlacementPositioning[PPP] (cm) [1, 2]: ns
Propel (s) [1, 2]: ns
PropelStance (%) [1, 2]: ns
PropelStride (%) [1, 2]: ns
SLVar (cm) [1, 2]: ns
SWVar (cm) [1, 2]: ns
Shared Stance (%) [1, 2]: ns
Stance (s) [1, 2]: ns
Stance/Swing (real#) [1, 2]: ns
StanceFactor (real#) [1, 2]: ns
StanceStride (%) [1, 2]: ns
StanceWidth (cm) [1, 2]: ns
StepAngle (deg) [1, 2]: ns
StepAngle Var (deg) [1, 2]: ns
Steps (real#) [1, 2]: ns
Stride (s) [1, 2]: ns
Stride Frequency (steps/s) [1, 2]: ns
StrideLength (cm) [1, 2]: ns
Swing (%) [1, 2]: ns
SwingStride (%) [1, 2]: ns
Tau - Propulsion (real#) [1, 2]: ns
polyAla RAN proteins expressed from (CAG)exp (poly-Ala RAN proteins): reduction

CN(C)C(=N)NC(=N)N [metformin]
polyAla RAN proteins expressed from (CAG)exp (poly-Ala RAN proteins): reduction
